Laboratory results taken from article PMC8165160, “Substrate Specificities and Inhibition Pattern of the Solute Carrier Family 10 Members NTCP, ASBT and SOAT” (Frontiers in Molecular Biosciences, 2021).
Structures can show the parent of a compound that is named as a salt.

Assays:
NTCP [1] = target: T1, NTCP (Homo sapiens, UniProt Q14973); assay: Binding of fluorescent myr-preS1-Al633 peptide to NTCP-HEK293 cells; parameters: The full-length open reading frames of NTCP, ASBT, and SOAT were cloned; expressed in transfected cells; host or cells: Flp-In T-REX HEK293 (NTCP-HEK293), tetracycline-induced
T1 sequence (Q14973 1-349): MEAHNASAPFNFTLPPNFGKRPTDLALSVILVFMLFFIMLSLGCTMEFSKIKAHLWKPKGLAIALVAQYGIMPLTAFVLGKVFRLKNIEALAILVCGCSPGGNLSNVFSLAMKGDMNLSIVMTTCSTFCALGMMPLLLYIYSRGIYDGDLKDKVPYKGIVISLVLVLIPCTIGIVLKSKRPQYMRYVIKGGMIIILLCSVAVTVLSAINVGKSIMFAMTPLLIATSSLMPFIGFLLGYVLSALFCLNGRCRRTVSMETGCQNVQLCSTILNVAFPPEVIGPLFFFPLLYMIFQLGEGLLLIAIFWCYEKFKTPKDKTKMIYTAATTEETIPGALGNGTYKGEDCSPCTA
Method: NTCP-HEK293 cells were seeded into 24-well-dishes as described above. For every set of induced wells an equal number of not-induced wells were used as respective background controls. Cells were washed three times with PBS and then preincubated with sodium transport buffer supplemented with MEM-amino acid solution (ThermoFisher) at 1:50 dilution at 37°C for 5 min. The fluorescent myr-preS1-Al633 peptide was added with a final concentration of 10 nM and binding experiments were performed over 10 min at 37°C. […] For calculation of the NTCP-specific binding signal, the mean background signal from the not-induced cells was subtracted. Net binding rates in the absence of any inhibitor were set to 100%.
(B) Binding of the fluorescent myr-preS1-Al633 peptide was analyzed in NTCP-HEK293 cells in the presence of increasing concentrations of TC, DHEAS, or TLC. […] Fluorescence was quantified by a fluorescence reader and values are expressed as percentage of control.

NTCP [2] = target: T1, NTCP; assay: Transport inhibition in NTCP-HEK293 cells; conditions: substrate inhibitors, 1 min after 5 min preincubation
ASBT [3] = target: T2, ASBT (Homo sapiens, UniProt Q12908); assay: Substrate screening: sodium-dependent uptake of radiolabeled compounds in ASBT-HEK293 cells; format: cell-based; conditions: radiolabeled bile acids 1 µM, 30 min, ASBT-HEK293, vs sodium-free control
T2 construct: The full-length open reading frames of NTCP, ASBT, and SOAT were cloned; expressed in transfected cells; host or cells: Flp-In T-REX HEK293 (ASBT-HEK293), tetracycline-induced
T2 sequence (Q12908 1-348): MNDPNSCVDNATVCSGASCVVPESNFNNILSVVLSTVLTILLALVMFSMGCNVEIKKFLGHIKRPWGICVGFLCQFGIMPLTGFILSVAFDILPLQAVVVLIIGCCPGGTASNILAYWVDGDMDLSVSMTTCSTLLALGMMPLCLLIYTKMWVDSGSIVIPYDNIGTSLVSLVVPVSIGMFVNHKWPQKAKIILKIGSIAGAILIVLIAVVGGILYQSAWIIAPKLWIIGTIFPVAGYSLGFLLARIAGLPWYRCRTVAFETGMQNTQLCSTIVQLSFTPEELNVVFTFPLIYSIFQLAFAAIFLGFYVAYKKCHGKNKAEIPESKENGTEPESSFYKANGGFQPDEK
Method: Stably SLC10 transporter transfected NTCP-HEK293, ASBT-HEK293, SOAT-HEK293 cells and the HEK293-FlpIn maternal cell line were seeded on 24-well plates (if not stated otherwise for individual assays). Well plates were coated with poly-D-lysine prior to seeding of 125,000 cells per well. Cells were grown with 1 ml of standard medium per well with or without tetracycline ([…]) for 72 h to induce carrier expression before respective assays were started. HEK293-FlpIn cells were cultivated with standard medium and served as control.
(§1) Uptake experiments were initiated by replacing the preincubation buffer by 500 μL transport buffer containing the radiolabeled test compound and were performed at 37°C. Transport was terminated by removing the transport buffer and washing five-times with ice-cold PBS. Cell monolayers were lysed in 1 N NaOH with 0.1% SDS and the cell-associated radioactivity was determined by liquid scintillation counting.
FIGURE 1 Comparative substrate screening for bile acids and sulfated steroids in NTCP-, ASBT-, and SOAT-HEK293 cells. Transport assays were performed with the indicated substrates in NTCP-HEK293, ABST-HEK293, SOAT-HEK293, and HEK293-FlpIn cells. Cells were washed and equilibrated with Na^+-containing transport buffer (filled bars) or with Na^+-free transport buffer (open bars) at 37°C. For uptake, cells were incubated with radiolabeled steroid compounds at a final concentration of 200 nM in Na^+-containing or Na^+-free transport buffer for 10 min. Radiolabeled bile acids were used at 1 µM concentrations and transport was analyzed over 30 min. HEK293-FlpIn cells served as additional controls. After the indicated time intervals, cells were washed with ice-cold PBS, lysed and subjected to liquid scintillation counting. […] 3-OH, trihydroxylated BAs; 2-OH, dihydroxylated BAs; 1-OH, monohydroxylated BAs.

ASBT [4] = target: T2, ASBT; assay: Transport kinetics (concentration-dependent uptake) in ASBT-HEK293 cells; format: cell-based; conditions: uptake via ASBT, 1 min, 37°C
Method: as §1
FIGURE 2 NTCP, ASBT, and SOAT transport kinetics. Concentration-dependent uptake was analyzed in NTCP-HEK293, ASBT-HEK293, and SOAT-HEK293 cells for the indicated substrates at increasing substrate concentrations. Stably transfected HEK293 cells were pretreated with 1 μg/ml tetracycline to induce carrier expression. HEK293-FlpIn cells were used as control. Uptake was analyzed for 1 min at 37°C. Afterward, the medium was removed and each cell monolayer was washed and processed to determine the protein content and cell-associated radioactivity. Specific uptake was calculated by subtracting non-specific uptake of the HEK293-FlpIn control cells (open squares) from uptake into carrier-overexpressing HEK293 cells (filled squares) and is shown by broken lines. The values represent means ± SD of duplicate experiments, each with triplicate determinations (n = 6).

HDV = conditions: NTCP expressing HepG2 hepatoma cells, trans-inhibitory effect; ref Lowjaga et al., 2021; cited from earlier work
[5] = NTCP IC50, substrate [3H]DHEAS, 200 nM [3H]DHEAS
[6] = NTCP IC50, substrate [3H]TC, 200 nM [3H]TC
[7] = NTCP IC50, substrate [3H]TLC, 200 nM [3H]TLC

| Structure (SMILES) | IC50 (NTCP [1]) [µM] | IC50 (NTCP [2]; [5]) [µM] | IC50 (NTCP [2]; [6]) [µM] | IC50 (NTCP [2]; [7]) [µM] | Transport activity grading ASBT (mean uptake) (ASBT [3]) | Apparent K m (ASBT [4]) [µM] | V max (ASBT [4]) [pmol/mg protein/min] | in vitro HDV infection (HDV) | IC50 (NTCP [1]; 10 nM myr-preS1-Al633, 10 min, 37°C, NTCP-HEK293, read-out: IC50 for inhibition of myr-preS1 peptide binding to NTCP) [µM] |
| --- | --- | --- | --- | --- | --- | --- | --- | --- | --- |
| C[C@]12CC[C@H](OS(=O)(=O)O)CC1=CC[C@@H]1[C@@H]2CC[C@]2(C)C(=O)CC[C@@H]12 [DHEAS, Dehydroepiandrosterone sulfate] | 52 | 3.4 | 21.5 | 432 |  |  |  |  |  |
| C[C@H](CCC(=O)NCCS(=O)(=O)O)[C@H]1CC[C@H]2[C@@H]3[C@H](O)C[C@@H]4C[C@H](O)CC[C@]4(C)[C@H]3C[C@H](O)[C@]12C [Taurocholic acid] |  |  |  |  | ++ (“++” for values between 500 and 1000) | 14.7 ± 1.5 | 1821 ± 75.1 |  |  |
| C[C@H](CCC(=O)NCCS(=O)(=O)O)[C@H]1CC[C@H]2[C@@H]3CC[C@@H]4C[C@H](O)CC[C@]4(C)[C@H]3CC[C@]12C [Taurolithocholic acid] |  | 1.8 | 1.7 | 1.4 | +++ (“+++” for values above 1000 pmol/mg protein/30 min) | 5.9 ± 1.8 | 1585 ± 99.7 | inhibited in vitro HDV infection | 4.3 |
